One assay addresses T1, VEGF8-121 (Homo sapiens, UniProt P15692).
T1 construct: made in house; host or cells: E. coli BL21(DE3)pLysS, inclusion bodies
T1 sequence (P15692 34-147 isoform P15692-9): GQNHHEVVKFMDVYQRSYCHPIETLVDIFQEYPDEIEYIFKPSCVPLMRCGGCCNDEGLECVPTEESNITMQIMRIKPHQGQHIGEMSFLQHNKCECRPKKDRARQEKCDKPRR
As to the kind of experiment: Inhibition of labeled VEGF8-121 binding to its receptors. The conditions noted are these: FIG. 9. From the text:
(§1) In order to verify this postulation, Sequence 1 (RRKRRR) was examined for the common binding domain on VEGF because it inhibited the binding of VEGF to its receptors at the highest efficiency. First, appropriate primers were synthesized and used to amplify various cDNAs coding for VEGF165, VEGF121, VEFG8-121, VEGF109, and VEGF8-109 while a human liver cDNA library (Clontech) served as a template. After being inserted to plasmid pRSET A (Invitrogen), the cDNAs were sequenced. The resulting five pRSET A vectors, each having one of the five cDNAs, were introduced into an expression strain (BL21(DE3)pLysS) containing T7 RNA polymerase. […] The purified VEGFs were quantified by use of a protein assay reagent (Bio-Rad) and all found to bind to VEGF receptors and exert growth hormone activity on HUVEC. […] For use, each labeled protein was quantified by ELISA (enzyme-linked immunosorbent assay) using a mouse monoclonal anti-VEGF antibody (R&D systems).
(§2) Each peptide was examined for antagonistic activity against VEGF in the same manner as in Example 2. Referring to FIG. 9, the radioactivity measured from ^125I-labeled VEGF associated with fixed Sequence 1 (RRKRRR) (SEQ ID NO: 1) is plotted in the absence of competitors and in the presence of competitors for various VEGF isomers. […]

The subject of another assay is rabbit corneal domes. As to the kind of experiment: Rabbit corneal dome angiogenesis induced by VEGF. To be noted: VEGF 10 ng with 1 μg peptide, 16 days after operation; listed as Sequence 1. It is filed as in vivo. As for the experimental part:
To confirm the test results obtained from egg CAM, an experiment was performed using rabbit corneal domes for in vivo angiogenesis testing. New Zealand male rabbits weighing 3 kg (SLC, Japan) were subjected to intramuscular ketamine anesthesia (44 mg/kg), followed by dissecting the corneal domes to a length of 3 mm by use of an operating knife (Bard-Parker—#11). […] 16 days after the operation, angiogenesis was obviously observed and photographs were taken of blood vessels newly formed in the corneal dome (Nikon, FS-2, Japan).

In the next assay the target is T2, VEGF121 (Homo sapiens, UniProt P15692).
T2 construct: made in house; host or cells: E. coli BL21(DE3)pLysS, inclusion bodies
T2 sequence (P15692 27-147 isoform P15692-9): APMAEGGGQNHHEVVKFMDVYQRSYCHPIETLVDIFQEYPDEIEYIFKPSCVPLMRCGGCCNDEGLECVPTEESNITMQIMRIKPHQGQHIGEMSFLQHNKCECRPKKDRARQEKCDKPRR
As to the kind of experiment: Inhibition of labeled VEGF121 binding to its receptors. The conditions noted are these: heparin-binding domain-deficient isoform, FIG. 9.
From the text: as §1, §2

Assay [1] concerns HM7 (human colon carcinoma cell line). As to the kind of experiment: Subcutaneous HM7 tumor growth in athymic nude mice. It is filed as in vivo. To be noted: after 15 days of subcutaneous injection. As to the method:
From the next day, a solution of each peptide in PBS (0.5 μg/100 μl/day) was subcutaneously injected to the mice for 15 days. Sizes of the tumors thus formed were periodically measured while tumor volumes were calculated according to the following formula: Tumor Size=0.5×(Diameter)^2×length

“Also recorded” adds a separate entry of the source.

As to “H-RRKRRR-NH2 [compound 8, NH2-Arg-Arg-Lys-Arg-Arg-Arg-CONH2]”, on VEGF8-121, the “inhibition of binding of VEGF8-121 to its receptors” value was “not inhibited”. For the same substance, in the assay with rabbit corneal domes, the “VEGF-induced angiogenesis in the rabbit corneal dome” value is reported as “completely inhibited; also recorded: anti-angiogenic effect”. Also, the “inhibition of binding of labeled VEGF121 to its receptors” value on VEGF121 is “inhibited”. Besides, the “effect on tumor size / growth of human colon carcinoma cells in mice” value in assay [1] is listed as “effectively inhibits the growth of human colon carcinoma cells in mice”. Besides, in assay [1] (0.5 μg/100 μl/day), the “decrease of tumor size compared to the control (PBS)” value is listed as “about 28%”.

(Values after US7291601B1, “Arginine-rich anti-vascular endothelial growth factor peptides that inhibit growth and metastasis of human tumor cells by blocking angiogenesis” (Korea Greencross Corp., priority 1999, dated 2007).)
